# Legend:
# [1] = target: T1, BTK recombinant human protein (Homo sapiens, UniProt Q06187); assay: Inhibitory activity against BTK (HTRF KinEASE-TK kit); format: biochemical; settings: 2 nM BTK, 10 µM ATP, 0.5 hours preincubation at 25°C; read-out: IC50 values of inhibitory activity against BTK
# T1 construct: purchased Thermo PV3363
# Description: Test example 1: Inhibitory activity of compounds of the present disclosure against BTK • I. Experimental materials and instruments • 1. BTK recombinant human protein (Thermo, PV3363) • 2. HTRF KinEASE-TK kit (Cisbio, 62TK0PEC) • 3. 1 M MgCl2 (Thermo, AM9530G) • 4. 1 M MnCl2 (Sigma, M1787-100ML) • 5. Adenosine 5'-triphosphate (ATP) (New England Biolabs, P0756L) • 6. DTT 2M (Sangon Biotech, B645939) • 7. Ultrapure water (Invitrogen, 10977-015) • 8. OptiPlate-384, white opaque 384-well microplate (PerkinElmer, 6007290) • 9. 96-well round-bottom plate (Corning, 3788) • 10. Biochemical incubator (Shanghai Boxun Medical & Biological Instruments Co., Ltd., BSP-100) • 11. 15-mL centrifuge tube (Corning) • 12. Benchtop high-speed centrifuge (Changsha Yingtai Instrument Co., Ltd., TD4N) • 13. Multifunctional microplate reader (PerkinElmer, EnVision) • 14. Bravo liquid handling platform (Agilent Technologies, SGC120TH34702) • II. Experimental procedure
# The HTRF KinEASE-TK kit is designed to detect changes in BTK enzyme activity based on two technologies, i.e., fluorescence resonance energy transfer and time-resolved fluorescence. The kit is operated in two stages: 1) enzyme reaction stage: the enzyme reaction is initiated by adding ATP, where the enzyme phosphorylates the substrate, and the compounds are then added to competitively bind to BTK against ATP, thereby inhibiting substrate phosphorylation; and 2) detection stage: after the enzyme reaction is complete, a detection reagent is added to terminate the reaction. Different groups on the phosphorylated substrate bind to the energy donor and energy acceptor, respectively, bringing the two into close proximity. During the instrumental readout, the energy donor is excited by an external light source, which enables resonance energy transfer to the proximal energy acceptor. The acceptor, in turn, becomes excited and emits light at a specific wavelength. Thus, changes in enzyme activity can be detected by measuring the signal values, and the inhibition rate of the compounds against the target enzyme can be calculated, thereby evaluating the inhibitory effect of the compounds on BTK enzyme activity.
# Preparation of enzyme reaction buffer: 5× Kinase Buffer was diluted 5-fold with ultrapure water, and then the stock solutions of MgCl2, MnCl2 and DTT were added. The final composition of the buffer was as follows: 1× Kinase Buffer, 10 mM MgCl2, 1 mM MnCl2, and 1 mM DTT.
# Preparation of 5 × BTK working solution: The BTK (5.17 µM) stock solution was removed from -20°C storage. Given that the BTK concentration in the enzyme reaction system was 2 nM and the concentration of the 5× working solution was 10 nM, the BTK stock solution was diluted 517-fold with the enzyme reaction buffer according to the volume required for the experiment. The diluted solution was then added to the 384-well plate at 2 µL per well. The plate was placed in a plate spinner and centrifuged at 2000 rpm for 1 minute to bring the liquid to the bottom of the wells.
# […]. Given that the SEB concentration in the enzyme reaction system was 50 nM and the concentration of the 5× working solution was 250 nM, the SEB stock solution was diluted 10-fold with the enzyme reaction buffer according to the volume required for the experiment. The diluted solution was then added to the 384-well plate at 2 µL per well. The plate was placed in a plate spinner and centrifuged at 2000 rpm for 1 minute to bring the liquid to the bottom of the wells.
# The test compounds dissolved in 100% DMSO at 20 mM were diluted with 100% DMSO to a concentration of 200 µM, which represents the 200× concentration of the highest compound concentration point in the reaction system. The compounds at this concentration were then subjected to 10-point 3-fold serial dilution with 100% DMSO. The positive control wells and negative control wells were set with 100% DMSO. […]
# mouse RPA model = assay: Efficacy in mouse RPA model (acute urticaria induced by OVA antigen and anti-OVA IgG); format: in vivo, C57BL/6N mice; settings: single dose, p.o.; for inhibition of OVA-induced skin swelling in mice: compared with the model group
# Description: To evaluate the efficacy of compound 3 in a mouse RPA model.
# The administration volume of the vehicle was 10 ml/kg, and that of compound 3 was 20 ml/kg. The vehicle consisted of 0.5% MC + 0.5% Tween 80 + 99% water.
# Thirty-three female C57BL/6N mice weighing 18-20 g were purchased from Vital River Laboratories. Animal production license No.: SCXK (Zhe) 2024-0001; animal qualification certificate No.: 20240229Abzz0619000122. The mice were housed in an SPF-grade animal facility under a 12/12-hour light/dark cycle, with a constant temperature of 23°C ± 1°C and a relative humidity of 50-60%. Food and water were provided ad libitum.
# After acclimatisation, the mice were grouped and administered as follows: Table 4. Animal grouping and dosing regimen for in vivo efficacy experiment
# After acclimatisation, the mice were shaved on the back one day prior to the experiment for skin preparation. On the day of the experiment, the mice were administered the vehicle control or compound 3 via oral gavage at administration volumes of 10 ml/kg and 20 ml/kg, respectively. Two hours post-administration, the mice were anaesthetised with isoflurane, and the thickness of the dorsal skin was measured using a vernier calliper. Upon completion of the measurement, 30 µg of mouse anti-OVA IgG was intradermally injected into the dorsal skin of the mice, while an equal volume of PBS was injected into the control group. Simultaneously, 200 µl of 2 mg/ml OVA antigen was intravenously injected. After 3 hours, the thickness of the skin swelling at the modelling site was measured.
# Data of relevant indicators for animals in each group were expressed as mean ± standard deviation (Mean ± SD) and statistically analysed and plotted using GraphPad software.
# T1 sequence (Q06187 whole entry): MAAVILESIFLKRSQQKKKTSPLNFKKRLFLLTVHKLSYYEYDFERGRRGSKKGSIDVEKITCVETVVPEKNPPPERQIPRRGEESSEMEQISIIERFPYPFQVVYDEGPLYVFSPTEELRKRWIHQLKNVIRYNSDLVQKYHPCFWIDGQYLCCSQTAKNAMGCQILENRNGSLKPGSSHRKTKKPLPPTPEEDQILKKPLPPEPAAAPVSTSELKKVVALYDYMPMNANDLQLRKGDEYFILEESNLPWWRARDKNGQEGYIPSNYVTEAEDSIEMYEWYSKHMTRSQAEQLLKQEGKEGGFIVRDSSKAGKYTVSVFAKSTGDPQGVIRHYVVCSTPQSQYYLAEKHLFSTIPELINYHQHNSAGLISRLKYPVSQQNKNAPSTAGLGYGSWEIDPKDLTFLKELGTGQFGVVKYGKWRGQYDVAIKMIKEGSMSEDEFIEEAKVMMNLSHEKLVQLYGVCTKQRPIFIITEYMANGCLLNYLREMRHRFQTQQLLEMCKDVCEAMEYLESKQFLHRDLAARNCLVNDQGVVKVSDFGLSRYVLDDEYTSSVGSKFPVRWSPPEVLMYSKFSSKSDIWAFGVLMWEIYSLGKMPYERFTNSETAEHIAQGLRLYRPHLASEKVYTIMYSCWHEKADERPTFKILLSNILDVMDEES
compound,measurement,setting,value
"C=CC(=O)N(C)CCOc1c(N)ncnc1-c1cc(F)cc(NC(=O)c2cc3c(cc2F)C2(CC2)CO3)c1C [Example 3, N-(3-(6-amino-5-(2-(N-methacrylamido)ethoxy)pyrimidin-4-yl)-5-fluoro-2-methylphenyl)-5-fluoro-2H-spiro[benzofuran-3,1'-cyclopropane]-6-carboxamide]",IC50,[1],8.3 nM
same,inhibitory effect on skin swelling across doses,"mouse RPA model; 30, 100 and 150 mpk",dose-dependent inhibitory effect
same,inhibition of OVA-induced skin swelling in mice,mouse RPA model; 30 mpk,no statistically significant difference
same,inhibition of OVA-induced skin swelling in mice,mouse RPA model; 100 mpk,significantly inhibited
same,inhibition of OVA-induced skin swelling in mice,mouse RPA model; 150 mpk,significantly inhibited
